Measured values taken from patent US12606543B2, “Indole derivatives as serotonergic agents useful for the treatment of disorders related thereto” (priority 2023, dated 2026).
Where two headings read alike, the source gives them in different places.

Legend:
[1] = Liver microsomes stability, human; format: in vitro ADME; settings: for CLint scaled at 2 μM: read-out: Scaled-up CLint
Protocol: The objective of this study was to estimate in vitro metabolic stability of exemplary compounds of Formula (I) or a pharmaceutically acceptable salt, solvate, and/or prodrug thereof in pooled human, male rat, and male mouse liver microsomes. The concentrations of compounds in reaction systems were evaluated by LC-MS/MS for estimating the stability in pooled human, male rat, and male mouse liver microsomes. The in vitro intrinsic clearances of test compounds were determined as well.
A master solution in the “Incubation Plate” containing phosphate buffer, ultra-pure H2O, MgCl2 solution and liver microsomes was made according to Table 33. The mixture was pre-warmed at 37° C. water bath for 5 minutes.
40 μL of 10 mM nicotinamide adenine dinucleotide phosphate (NADPH) solution was added to each well. The final concentration of NADPH was 1 mM. The negative control samples were prepared by replacing NADPH with 40 μL of ultra-pure H2O. Samples were prepared in duplicate. Negative controls were prepared in singlet.
The reaction was started with the addition of 4 μL of 200 μM exemplary test compounds of the disclosure or control compounds to each master solution to get the final concentration of 2 μM. This study was performed in duplicate.
Aliquots of 50 μL were taken from the reaction solution at 0, 15, 30, 45, and 60 minutes. The reaction solutions were stopped by the addition of 4 volumes of cold methanol with IS (100 nM alprazolam, 200 nM imipramine, 200 nM labetalol, and 2 μM ketoprofen). Samples were centrifuged at 3,220 g for 40 minutes. Aliquot of 90 μL of the supernatant was mixed with 90 μL of ultra-pure H2O and then was used for LC-MS/MS analysis.
LC/MS analysis was performed for all samples from this study using a Shimadzu liquid chromatograph separation system equipped with degasser DGU-20A5R; solvent delivery unit LC-30AD; system controller SIL-30AC; column oven CTO-30A; CTC Analytics HTC PAL System. Mass spectrometric analysis was performed using a Triple Quad™ 5500 instrument.
All calculations were carried out using Microsoft Excel. Peak area ratios of test compound to internal standard (listed in the below table) were determined from extracted ion chromatograms.
All calculations were carried out using Microsoft Excel. Peak areas were determined from extracted ion chromatograms. The slope value, k, was determined by linear regression of the natural logarithm of the remaining percentage of the parent drug vs. incubation time curve.
The in vitro half-life (in vitro t1/2) was determined from the slope value:
Conversion of the in vitro t1/2 (min) into the in vitro intrinsic clearance (in vitro CLint, in μL/min/mg proteins) was done using the following equation (mean of duplicate determinations): […]
The objective of this study was to estimate in vitro metabolic stability of exemplary compounds of Formula (I) or a pharmaceutically acceptable salt, solvate and/or prodrug thereof in pooled human, male rat and male mouse liver microsomes. The concentrations of compounds in reaction systems were evaluated by LC-MS/MS for estimating the stability in pooled human, male rat and male mouse liver microsomes. The in vitro intrinsic clearances of test compounds were determined as well.
A master solution in the “Incubation Plate” containing phosphate buffer, ultra-pure H2O, MgCl2 solution and liver microsomes was made according to Table 67. The mixture was pre-warmed at 37° C. water bath for 5 minutes.
40 μL of 10 mM NADPH solution was added to each well. The final concentration of NADPH was 1 mM. The negative control samples were prepared by replacing NADPH with 40 μL of ultra-pure H2O. Samples were prepared in duplicate. Negative controls were prepared in singlet
Aliquots of 50 μL were taken from the reaction solution at 0, 15, 30, 45 and 60 minutes. The reaction solutions were stopped by the addition of 4 volumes of cold methanol with IS (100 nM alprazolam, 200 nM imipramine, 200 nM labetalol and 2 μM ketoprofen).

human 5-HT2C receptor = biological target: T1, human 5-HT2C receptor (Homo sapiens, UniProt P28335); assay: cell-based; settings: calcium mobilization FLIPR; for Emax (% of serotonin): U2OS cells, relative to maximum response of serotonin; for EC50: stably transfected U2OS cells
T1 construct: expressed in transfected cells; host or cells: U2OS
T1 sequence (P28335 33-458): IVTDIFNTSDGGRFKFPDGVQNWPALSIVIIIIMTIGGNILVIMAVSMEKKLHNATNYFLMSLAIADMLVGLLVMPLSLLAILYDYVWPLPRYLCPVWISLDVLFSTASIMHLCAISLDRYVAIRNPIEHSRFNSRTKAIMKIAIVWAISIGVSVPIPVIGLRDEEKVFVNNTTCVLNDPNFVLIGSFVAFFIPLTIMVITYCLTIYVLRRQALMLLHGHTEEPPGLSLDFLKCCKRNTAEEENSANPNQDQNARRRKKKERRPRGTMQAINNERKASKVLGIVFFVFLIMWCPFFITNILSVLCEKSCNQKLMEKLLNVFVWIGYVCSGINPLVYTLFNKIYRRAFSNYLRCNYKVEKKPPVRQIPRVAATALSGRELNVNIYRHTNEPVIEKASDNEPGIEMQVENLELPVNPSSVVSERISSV

[2] = human liver microsomes, 2 μM compound, 0.5 mg/mL microsomes
[3] = human liver microsomes, With Cofactors, 0 min
[4] = human liver microsomes, With Cofactors, 30 min
[5] = human liver microsomes, With Cofactors, 60 min
[6] = human liver microsomes, Without Cofactors, 0 min
[7] = human liver microsomes, Without Cofactors, 30 min
[8] = human liver microsomes, Without Cofactors, 60 min
[9] = Human liver microsomes, 2 μM, 0.5 mg/mL, NADPH

SMILES | Predicted hepatic CL ([1]; human liver microsomes) [mL/min/kg] | half-life at 2 μM [1, 2] [min] | microsomal CLint at 2 μM [1, 2] [µL/min/mg] | Remaining Percentage [1, 3] [%] | Remaining Percentage [1, 4] [%] | Remaining Percentage [1, 5] [%] | Remaining Percentage [1, 6] [%] | Remaining Percentage [1, 7] [%] | Remaining Percentage [1, 8] [%] | CLint scaled at 2 μM ([1]; human liver microsomes) [mL/min/kg] | Emax (% of serotonin) (human 5-HT2C receptor) | EC50 (human 5-HT2C receptor) [nM] | other results
[2H]C([2H])(c1c[nH]c2ccc(OCCCCCN3C(=O)c4ccccc4C3=O)cc12)[C@H]1CCCN1C([2H])([2H])[2H] [(R) I-245, (R)-2-(5-((3-((1-(Methyl-d3)pyrrolidin-2-yl)methyl-d2)-1H-indol-5-yl)oxy)pentyl)isoindoline-1,3-dione] | 18.11 | 12 | 115 | 100.00 | 14.62 | 3.13 | 100.00 | 101.09 | 98.91 | 145 | 83.29 % of serotonin | 42.3 | –
[2H]C([2H])(c1c[nH]c2ccc(OCCCCCN3C(=O)[C@H]4CCCC[C@H]4C3=O)cc12)[C@H]1CCCN1C([2H])([2H])[2H] [Cis (R) I-248, 2-(5-((3-(((R)-1-(Methyl-d3)pyrrolidin-2-yl)methyl-d2)-1H-indol-5-yl)oxy)pentyl)hexahydro-1H-isoindole-1,3(2H)-dione] | – | – | – | – | – | – | – | – | – | – | 89.99 % of serotonin | 151 | –
COCCN1CCC[C@@H]1Cc1c[nH]c2ccc(OC)cc12 [(R) I-98, (R)-5-Methoxy-3-((1-(2-methoxyethyl)pyrrolidin-2-yl)methyl)-1H-indole] | 11.72 | 64.3 | 21.6 | – | 100.00 | 67.04 | – | 100.00 | 98.21 | 27 | 95.23 % of serotonin | 6.51 | –
CSc1ccc2[nH]cc(C[C@H]3CCCN3C)c2c1 [(R) I-1, (R)-3-((1-Methylpyrrolidin-2-yl)methyl)-5-(methylthio)-1H-indole] | – | – | – | – | – | – | – | – | – | – | 95.27 % of serotonin | 0.6 | Predicted hepatic CL ([1]; Human liver microsomes): 16.09 mL/min/kg; half-life at 2 μM [1, 9]: 24 min; microsomal CLint at 2 μM [1, 9]: 57.7 µL/min/mg; CLint scaled at 2 μM ([1]; Human liver microsomes): 72.3 mL/min/kg; Remaining Percentage (%) 0 min [1, 3]: 100.00%; Remaining Percentage (%) 30 min [1, 4]: 50.51%; Remaining Percentage (%) 60 min [1, 5]: 17.72%; Remaining Percentage (%) 0 min [1, 6]: 100.00%; Remaining Percentage (%) 30 min [1, 7]: 101.47%; Remaining Percentage (%) 60 min [1, 8]: 97.56%
[2H]C([2H])(c1c[nH]c2ccc(OCCCCCN3C(=O)C4CCCCC4C3=O)cc12)[C@H]1CCCN1C([2H])([2H])[2H] (mixture of isomers) [Rac (R) I-248] | >19.64 | < 4.51 | > 307 | 100.00 | 0.04 | 0.00 | 100.00 | 100.47 | 98.60 | > 385 | – | – | –
[2H]C([2H])(c1c[nH]c2ccc(OCCCCN3C(=O)c4ccccc4C3=O)cc12)[C@H]1CCCN1C([2H])([2H])[2H] [(R) I-244, (R)-2-(4-((3-((1-(Methyl-d3)pyrrolidin-2-yl)methyl-d2)-1H-indol-5-yl)oxy)butyl)isoindoline-1,3-dione] | 19.32 | 5.98 | 232 | 100.00 | 3.10 | 0.00 | 100.00 | 94.44 | 88.07 | 290 | 87.27 % of serotonin | 2.53 | –
